# Data published in patent US20240051985A1, “METTL3 MODULATORS” (ACCENT THERAPEUTICS, INC., priority 2020, published 2024).
# Key:
# [1] = molecular target: PRMT5-MEP50 (Homo sapiens, UniProt O14744); experiment: PRMT5 assay (3H-SAM flashplate); conditions: PRMT5 biochemical assay
# Description: Assays were performed in a 25 μl-volume in 384-well V-bottom polypropylene microplates (Greiner Bio-One, cat. No. 781280) at ambient temperature. Optimized 1× assay buffer was 20 mM Tris-HCl pH 8.0, 1 mM DTT, […]. For compound screening PRMT5-MEP50 (final concentration, f.c.=2.5 nM) was added using a Multidrop Combi (ThermoFisher Scientific, Waltham, MA) and preincubated for 5 min. Reactions were started by adding 3′ biotinylated histone H4 peptide acetylated on serine 1 (Ac-[…]-Biotin) (f.c.=100 nM) and 3H-SAM (f.c.=250 nM) substrates. Reactions proceeded for 60 minutes and were quenched with excess non-radioactive SAM (f.c.=15 μM). The reactions were then transferred to streptavidin-coated flashplates and incubated for 2 hours at 25° C. Following two washing cycles with 0.1% Tween-20, the plates were sealed and read on a TopCount (PerkinElmer, Waltham, MA) plate-based scintillation counter. For determination of kinetic parameters, reaction times were optimized so that measurements were taken during the initial velocity phase of the reaction.
# [2] = molecular target: METTL3/METTL14 (Homo sapiens, UniProt Q86U44); experiment: METTL3-14 standard enzyme assay (3H-SAM flashplate); conditions: METTL3 biochemical assay
# Sequence of METTL3/METTL14 (Q86U44 whole entry, species assumed): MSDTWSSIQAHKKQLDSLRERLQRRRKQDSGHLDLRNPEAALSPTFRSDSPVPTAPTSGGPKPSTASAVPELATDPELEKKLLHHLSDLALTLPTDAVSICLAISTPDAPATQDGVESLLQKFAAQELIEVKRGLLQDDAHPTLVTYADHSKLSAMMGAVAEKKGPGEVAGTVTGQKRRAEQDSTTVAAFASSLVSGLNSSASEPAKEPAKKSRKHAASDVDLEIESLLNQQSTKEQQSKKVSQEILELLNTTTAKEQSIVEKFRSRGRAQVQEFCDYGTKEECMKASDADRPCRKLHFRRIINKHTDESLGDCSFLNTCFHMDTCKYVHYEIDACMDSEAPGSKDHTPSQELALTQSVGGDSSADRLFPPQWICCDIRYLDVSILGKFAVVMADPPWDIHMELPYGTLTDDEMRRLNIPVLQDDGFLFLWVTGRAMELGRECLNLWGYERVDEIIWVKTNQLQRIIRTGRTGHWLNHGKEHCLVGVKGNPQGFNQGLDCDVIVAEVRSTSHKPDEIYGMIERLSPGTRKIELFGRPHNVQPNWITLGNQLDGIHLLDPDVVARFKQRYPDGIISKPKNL
# Sequence of METTL3/METTL14 (Q9HCE5 whole entry partner, species assumed): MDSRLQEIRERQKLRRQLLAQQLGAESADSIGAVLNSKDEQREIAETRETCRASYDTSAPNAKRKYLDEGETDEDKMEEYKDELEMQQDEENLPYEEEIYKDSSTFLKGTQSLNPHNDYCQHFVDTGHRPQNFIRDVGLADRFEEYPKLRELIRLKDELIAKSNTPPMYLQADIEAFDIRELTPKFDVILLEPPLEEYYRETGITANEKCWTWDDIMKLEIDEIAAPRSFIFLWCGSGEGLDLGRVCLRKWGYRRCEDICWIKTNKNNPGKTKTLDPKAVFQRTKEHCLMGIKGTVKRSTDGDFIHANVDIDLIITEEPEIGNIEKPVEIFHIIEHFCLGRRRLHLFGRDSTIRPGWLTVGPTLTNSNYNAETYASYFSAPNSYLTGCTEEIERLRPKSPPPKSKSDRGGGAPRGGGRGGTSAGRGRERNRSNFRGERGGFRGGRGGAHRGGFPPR
# Description: METTL3-14 Standard Enzyme Assay
# Assays were performed in a 25 μl-volume in 384-well V-bottom polypropylene microplates (Greiner Bio-One, cat. No. 781280) at ambient temperature. Optimized 1× assay buffer was 20 mM HEPES pH 7.5, 50 mM KCl, 250 μM MgCl2, 1 mM DTT, 0.01% Tween, 0.01% BSG, 0.004 U/μl RNAseOUT (cat. No. 10777019, ThermoFisher Scientific, Waltham, MA). For compound screening METTL3/METTL14 (final concentration, f.c.=2.5 nM) was added using a Multidrop Combi (ThermoFisher Scientific, Waltham, MA) and preincubated for 5 min. Reactions were started by adding 3′ biotinylated RNA (UCUGGACUAAA-biotin) (f.c.=100 nM) and 3H-SAM (f.c.=100 nM) substrates. Reactions proceeded for 30 minutes and were quenched with excess non-radioactive SAM (f.c.=15 μM). The reactions were then transferred to streptavidin-coated flashplates and incubated for 2 hours at 25° C. Following two washing cycles with 0.1% Tween-20, the plates were sealed and read on a TopCount (PerkinElmer, Waltham, MA) plate-based scintillation counter. For determination of kinetic parameters, reaction times were optimized so that measurements were taken during the initial velocity phase of the reaction.
# Sequence of PRMT5-MEP50 (O14744 whole entry): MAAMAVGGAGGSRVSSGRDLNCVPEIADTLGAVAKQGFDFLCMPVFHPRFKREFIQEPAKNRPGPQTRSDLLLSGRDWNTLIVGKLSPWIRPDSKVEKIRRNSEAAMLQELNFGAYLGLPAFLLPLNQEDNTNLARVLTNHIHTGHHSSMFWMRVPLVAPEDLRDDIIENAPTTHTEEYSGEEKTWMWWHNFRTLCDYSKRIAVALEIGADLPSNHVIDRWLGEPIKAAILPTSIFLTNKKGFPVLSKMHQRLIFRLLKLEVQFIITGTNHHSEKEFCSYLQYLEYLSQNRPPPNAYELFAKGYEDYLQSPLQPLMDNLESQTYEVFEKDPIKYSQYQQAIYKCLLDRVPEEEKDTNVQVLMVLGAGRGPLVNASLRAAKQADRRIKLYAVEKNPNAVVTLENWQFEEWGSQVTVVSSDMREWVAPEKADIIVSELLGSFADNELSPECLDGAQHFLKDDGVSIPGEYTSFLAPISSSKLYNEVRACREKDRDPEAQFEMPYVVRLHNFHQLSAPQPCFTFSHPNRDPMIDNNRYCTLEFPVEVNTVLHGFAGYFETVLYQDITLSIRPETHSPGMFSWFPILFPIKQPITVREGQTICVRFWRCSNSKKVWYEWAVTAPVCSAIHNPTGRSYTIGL
# Sequence of PRMT5-MEP50 (Q9BQA1 whole entry partner): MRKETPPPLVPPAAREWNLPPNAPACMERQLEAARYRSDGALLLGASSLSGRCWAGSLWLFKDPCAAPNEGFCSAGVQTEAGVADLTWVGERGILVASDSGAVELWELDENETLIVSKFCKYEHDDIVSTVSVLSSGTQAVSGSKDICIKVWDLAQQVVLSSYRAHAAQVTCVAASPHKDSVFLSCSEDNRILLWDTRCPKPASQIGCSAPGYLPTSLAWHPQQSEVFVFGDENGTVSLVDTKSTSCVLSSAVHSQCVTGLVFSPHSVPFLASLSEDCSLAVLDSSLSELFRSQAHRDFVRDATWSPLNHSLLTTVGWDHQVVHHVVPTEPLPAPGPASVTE
IC50 ([1]; Table 4),IC50 ([2]; Table 4),IC50 ([1]; Table 3),IC50 ([2]; Table 3),Compound
0.1 to 1 µM,< 0.01 µM,,,"CNc1ccc2ccc(N(CC[C@H](N)C(=O)O)C(=O)[C@H]3O[C@@H](n4cc(-c5ccn(C)n5)c5c(N)ncnc54)[C@H](O)[C@@H]3O)cc2n1 [Compound I-38, (2S)-2-amino-4-{1-[(2S,3S,4R,5R)-5-[4-amino-5-(1-methyl-1H-pyrazol-3-yl)-7H-pyrrolo[2,3-d]pyrimidin-7-yl]-3,4-dihydroxyoxolan-2-yl]-N-[2-(methylamino)quinolin-7-yl]formamido}butanoic acid]"
,,≥ 1 µM,≥ 1 µM,COCCNC(=O)[C@H]1O[C@@H](n2cc(-c3ccn(C)n3)c3c(N)ncnc32)[C@H](O)[C@@H]1O [Compound I-3]
0.1 to 1 µM,≥ 1 µM,,,CC(=O)NCCCN(C(=O)[C@H]1O[C@@H](n2cc(-c3ccn(C)n3)c3c(N)ncnc32)[C@H](O)[C@@H]1O)C1CCN(C)CC1 [Compound I-235]
0.01 to 0.1 µM,≥ 1 µM,,,CN1CCC(N(CCCc2nn[nH]n2)C(=O)[C@H]2O[C@@H](n3cc(-c4ccn(C)n4)c4c(N)ncnc43)[C@H](O)[C@@H]2O)CC1 [Compound I-48]
< 0.01 µM,0.1 to 1 µM,,,"C#CCCCN(C(=O)[C@H]1O[C@@H](n2cc(-c3ccn(C)n3)c3c(N)ncnc32)[C@H](O)[C@@H]1O)C1CCN(C)CC1 [Compound I-59, (2S,3S,4R,5R)-5-(4-amino-5-(1-methyl-1H-pyrazol-3-yl)-7H-pyrrolo[2,3-d]pyrimidin-7-yl)-3,4-dihydroxy-N-(1-methylpiperidin-4-yl)-N-(pent-4-yn-1-yl)tetrahydrofuran-2-carboxamide]"
,,0.01 to 0.1 µM,0.1 to 1 µM,CN1CCC(NC(=O)[C@H]2O[C@@H](n3cc(-c4ccn(C)n4)c4c(N)ncnc43)[C@H](O)[C@@H]2O)CC1 [Compound I-25]
,,0.01 to 0.1 µM,≥ 1 µM,CN(C)CCNC(=O)[C@H]1O[C@@H](n2cc(-c3ccn(C)n3)c3c(N)ncnc32)[C@H](O)[C@@H]1O [Compound I-4]
≥ 1 µM,≥ 1 µM,,,Cn1ccc(-c2cn([C@@H]3O[C@H](C(=O)N4CCC[C@H](C(N)=O)C4)[C@@H](O)[C@H]3O)c3ncnc(N)c23)n1 [Compound I-200]
≥ 1 µM,≥ 1 µM,,,Cn1ccc(-c2cn([C@@H]3O[C@H](C(=O)NC4CCS(=O)(=O)C4)[C@@H](O)[C@H]3O)c3ncnc(N)c23)n1 (stereo partly drawn) [Compound I-213]
≥ 1 µM,0.1 to 1 µM,,,Cn1ccc(-c2cn([C@@H]3O[C@H](C(=O)NC4CCC4)[C@@H](O)[C@H]3O)c3ncnc(N)c23)n1 [Compound I-218]
,,≥ 1 µM,≥ 1 µM,COCCN(C(=O)[C@H]1O[C@@H](n2ccc3c(N)ncnc32)[C@H](O)[C@@H]1O)c1ccc2ccc(N3CCC3)nc2c1 [Compound I-12]
,,0.1 to 1 µM,0.1 to 1 µM,Cn1ccc(-c2cn([C@@H]3O[C@H](C(=O)NCC4CCC(F)(F)CC4)[C@@H](O)[C@H]3O)c3ncnc(N)c23)n1 [Compound I-22]
≥ 1 µM,≥ 1 µM,,,Cn1ccc(-c2cn([C@@H]3O[C@H](C(=O)N[C@H]4C[C@H](O)C4)[C@@H](O)[C@H]3O)c3ncnc(N)c23)n1 [Compound I-215]
,,≥ 1 µM,≥ 1 µM,"Cn1ccc(-c2cn([C@@H]3O[C@H](C(=O)NC4CCNCC4)[C@@H](O)[C@H]3O)c3ncnc(N)c23)n1 [Compound I-1, (2S,3S,4R,5R)-5-[4-amino-5-(1-methyl-1H-pyrazol-3-yl)-7H-pyrrolo[2,3-d]pyrimidin-7-yl]-3,4-dihydroxy-N-(piperidin-4-yl)oxolane-2-carboxamide]"
,,0.1 to 1 µM,0.1 to 1 µM,COCCN(C(=O)[C@H]1O[C@@H](n2cc(-c3ccn(C)n3)c3c(N)ncnc32)[C@H](O)[C@@H]1O)c1ccc2ccc(N3CCC3)nc2c1 [Compound I-11]
0.1 to 1 µM,0.1 to 1 µM,,,Cn1ccc(-c2cn([C@@H]3O[C@H](C(=O)NC4CCN(C5CCC5)CC4)[C@@H](O)[C@H]3O)c3ncnc(N)c23)n1 [Compound I-224]
,,0.01 to 0.1 µM,≥ 1 µM,COCCCN(C(=O)[C@H]1O[C@@H](n2cc(-c3ccn(C)n3)c3c(N)ncnc32)[C@H](O)[C@@H]1O)C1CCNCC1 [Compound I-7]
0.01 to 0.1 µM,0.01 to 0.1 µM,,,Cn1ccc(-c2cn([C@@H]3O[C@H](C(=O)NC4CCN(CC5CCC5)CC4)[C@@H](O)[C@H]3O)c3ncnc(N)c23)n1 [Compound I-223]

IC50 ([1]; Table 4),IC50 ([2]; Table 4),IC50 ([1]; Table 3),IC50 ([2]; Table 3),Compound
,,0.1 to 1 µM,≥ 1 µM,CN1CCC(NC(=O)[C@H]2O[C@@H](n3ccc4c(N)ncnc43)[C@H](O)[C@@H]2O)CC1 [Compound I-27]
0.1 to 1 µM,0.1 to 1 µM,,,Cn1ccc(-c2cn([C@@H]3O[C@H](C(=O)NC4CCC5(CC4)CNC5)[C@@H](O)[C@H]3O)c3ncnc(N)c23)n1 [Compound I-208]
≥ 1 µM,≥ 1 µM,,,"CN1CCC(NC(=O)[C@H]2C[C@@H](n3cc(-c4ccn(C)n4)c4c(N)ncnc43)C[C@@H]2O)CC1 [Compound I-55, (1S,2S,4R)-4-(4-amino-5-(1-methyl-1H-pyrazol-3-yl)-7H-pyrrolo[2,3-d]pyrimidin-7-yl)-2-hydroxy-N-(1-methylpiperidin-4-yl)cyclopentane-1-carboxamide]"
0.1 to 1 µM,0.1 to 1 µM,,,C[C@H]1C[C@@H](NC(=O)[C@H]2O[C@@H](n3cc(-c4ccn(C)n4)c4c(N)ncnc43)[C@H](O)[C@@H]2O)CCN1C [Compound I-232]
,,≥ 1 µM,0.1 to 1 µM,Cn1ccc(-c2cn([C@@H]3O[C@H](C(=O)NCc4ccccc4)[C@@H](O)[C@H]3O)c3ncnc(N)c23)n1 [Compound I-26]
,,≥ 1 µM,0.1 to 1 µM,Cn1ccc(-c2cn([C@@H]3O[C@H](C(=O)N(CC[C@H](N)C(=O)O)C4CCNCC4)[C@@H](O)[C@H]3O)c3ncnc(N)c23)n1 [Compound I-9]
,,≥ 1 µM,0.1 to 1 µM,CCNc1ccnc(NC(=O)[C@H]2O[C@@H](n3cc(-n4cccn4)c4c(N)ncnc43)C[C@@H]2O)c1 [Compound I-29]
0.1 to 1 µM,0.1 to 1 µM,,,Cn1ccc(-c2cn([C@@H]3O[C@H](C(=O)NC4CCN5CCCC5C4)[C@@H](O)[C@H]3O)c3ncnc(N)c23)n1 (stereo partly drawn) [Compound I-206]
,,≥ 1 µM,≥ 1 µM,COCCCN(C)C(=O)[C@H]1O[C@@H](n2cc(-c3ccn(C)n3)c3c(N)ncnc32)[C@H](O)[C@@H]1O [Compound I-5]
0.1 to 1 µM,0.1 to 1 µM,,,CN1CCC(N(C[C@H]2CCNC2)C(=O)[C@H]2O[C@@H](n3cc(-c4ccn(C)n4)c4c(N)ncnc43)[C@H](O)[C@@H]2O)CC1 [Compound I-154]
≥ 1 µM,0.1 to 1 µM,,,Cn1ccc(-c2cn([C@@H]3O[C@H](C(=O)NC4CCN(c5ccccn5)CC4)[C@@H](O)[C@H]3O)c3ncnc(N)c23)n1 [Compound I-222]
,,0.01 to 0.1 µM,0.1 to 1 µM,Cn1ccc(-c2cn([C@@H]3O[C@H](C(=O)NCC4CCN(CCO)CC4)[C@@H](O)[C@H]3O)c3ncnc(N)c23)n1 [Compound I-19]
,,< 0.01 µM,0.1 to 1 µM,Cn1ccc(-c2cn([C@@H]3O[C@H](C(=O)N(CCCO)C4CCNCC4)[C@@H](O)[C@H]3O)c3ncnc(N)c23)n1 [Compound I-8]
,,≥ 1 µM,≥ 1 µM,Nc1ncnc2c1ccn2[C@@H]1O[C@H](C(=O)NCC2CCN(CC(F)F)CC2)[C@@H](O)[C@H]1O [Compound I-28]
,,0.1 to 1 µM,≥ 1 µM,Cn1ccc(-c2cn([C@@H]3O[C@H](C(=O)NCC4CCN(CC(F)F)CC4)[C@@H](O)[C@H]3O)c3ncnc(N)c23)n1 [Compound I-23]
0.01 to 0.1 µM,≥ 1 µM,,,CN1CCC[C@H](NC(=O)[C@H]2O[C@@H](n3cc(-c4ccn(C)n4)c4c(N)ncnc43)[C@H](O)[C@@H]2O)C1 [Compound I-230]
0.1 to 1 µM,0.1 to 1 µM,,,Cn1ccc(-c2cn([C@@H]3O[C@H](C(=O)NC4CCN(c5ccccc5)CC4)[C@@H](O)[C@H]3O)c3ncnc(N)c23)n1 [Compound I-221]

Compound,IC50 ([1]; Table 4),IC50 ([2]; Table 4),IC50 ([1]; Table 3),IC50 ([2]; Table 3)
"(2S,3S,4R,5R)-5-[4-amino-5-(1-methyl-1H-pyrazol-3-yl)-7H-pyrrolo[2,3-d]pyrimidin-7-yl]-3,4-dihydroxy-N-{3-[(methylcarbamoyl)amino]propyl}-N-(1-methylpiperidin-4-yl)oxolane-2-carboxamide [Compound I-50]",0.1 to 1 µM,≥ 1 µM,,
